From EP0819121B1, “TRICYCLIC COMPOUNDS USEFUL FOR INHIBITION OF G-PROTEIN FUNCTION AND FOR TREATMENT OF PROLIFERATIVE DISEASES” (SCHERING CORPORATION, priority 1995, dated 1996)
Read-outs that look alike come from different tables or passages of the source.

Experiments:
[1] = target: farnesyl protein transferase (Homo sapiens, UniProt P49354+P49356); assay: FPT inhibition, in vitro enzyme assay (SPA, transfer of [3H]farnesyl to biotinylated Ras-peptide; or methods of WO 95/10516); type: biochemical; conditions: values given as ranges
Procedure: (§1) In some assays, FPT IC50 (inhibition of farnesyl protein transferase, in vitro enzyme assay) is determined by the methods described in WO 95/10516. COS Cell IC50 (Cell-Based Assay) and Cell Mat assay are determined by the methods described in WO 95/10516. GGPT IC50 (geranylgeranyl protein transferase, in vitro enzyme assay) and in vitro tumor activity can be determined by the methods disclosed in WO 95/10516.
In some assays, the inhibition of famesyi protein transferase was assayed by measuring the transfer of [^3H]farnesyl from [^3H]famesylpyrophosphate to biotinylated Ras-peptide (biotin-KKSKTKCVIM) using the conditions described below for each 96-well plate to be tested.
An assay buffer is prepared consisting of 40 mM Hepes, pH 7.5; 5 mM dithiothreitol; 20 mM magnesium chloride and 0.01 (v/v)% Igepal nonionic detergent.
A SPA (scintillation proximity assay) bead suspension is prepared consisting of 50 mg of Streptavidin SPA beads (Amersham Life-Science) suspended in 2.5 mL of PBS (phosphate buffered saline). Immediately prior to running the assay a stop solution is prepared consisting of 480 µL of the SPA bead suspension mixed with 6720 µL of a solution consisting of 250 mM EDTA (pH 8.0) and 0.5% Bovine Serium Albumin (Fraction V, 96-99% albumin).
(§2) In some assays, to determine FPT IC50, an assay mixture is prepared consisting of 480 µL of assay buffer and 3052.8 µL of water. This mixture is vortexed to homogeneity and 48 µL of the Ras peptide is added. The mixture is vortexed and 15.36 µL of FPP and 3.84 µL of [^3H]FPP are added and the mixture vortexed again. 37.5 µL of this assay mixture and 2.5µL of a DMSO solution (at test concentration) of the compound being tested are then added to each well of a Costar polypropylene U-bottom microtiter plate. The plate is sonicated for 15 minutes at 37°C and then shaken for 15 minutes on a plate shaker. 10 µL of the enzyme (recombinant Human farnesyl protein transferase) is added to each well using a Beckman Biomek 2000. The plate is incubated at room temperature for 20 minutes and then quenched with 75 µL of the stop solution. 100 µL of the quenched reaction mixture from each well is then transferred to a Wallac crosstalk-free microtiter plate using a Beckman Biomek 2000. Radioactivity is measured in a Wallac 1450 Microbeta plus liquid scintillation counter. Percent inhibition is calculated relative to an uninhibited control.
as §2, with “farnesyl transferase inhibition,” for “FPT IC50,”, “buffer,” for “buffer and”, “water and 240 µL of DMSO.” for “water.”, “40” for “37.5”, “is” for “and 2.5µL of a DMSO solution (at test concentration) of the compound being tested are”, “plate, each well of which contains a dry sample of the compound being tested.” for “plate.”

[2] = tested on: Tumor Cells; assay: Cell Mat assay, cell growth inhibition, tumor cells (methods of WO 95/10516); type: cell-based
Procedure: as §1

[3] = tested on: Normal Cells; assay: Cell Mat assay, cell growth inhibition, normal cells (methods of WO 95/10516); type: cell-based
Procedure: as §1

[4] = tested on: COS Cells; assay: COS cell assay, inhibition of RAS processing (cell-based, methods of WO 95/10516)
Procedure: as §1

[5] = read-out: Cell Growth Inhibition MAT Assay Tumor Cells IC50
[6] = read-out: Cell Growth Inhibition MAT Assay Normal Cells IC50
[7] = read-out: Activity in COS Cells Inhibition of RAS Processing IC50 in µM
[8] = read-out: Activity in COS Cells Inhibition of RAS Processing IC50

Row | SMILES | FPT Inhibition IC50 [1] [nM] | also measured
1 | O=C(CC1CN(C2c3ccc(Cl)cc3CCc3cc(Br)cnc32)CCN1C(=O)Cc1ccncc1)NC1CC1 (centres unmarked) [EX 54] | 10 to 10000 | 
2 | N[C@@H](CS)C(=O)N1CCN(C2c3ccc(Cl)cc3CCc3cc(Br)cnc32)CC1 (some centres unmarked) [EX 21, Step B] | 10 to 10000 | 
3 | CNC(=O)C1CN(C2c3ccc(Cl)cc3CCc3cc(Br)cnc32)CCN1C(=O)Cc1cccnc1 (centres unmarked) [EX 32-A] | 10 to 10000 | 
4 | CCCCNC(=O)C1CN(C2c3ccc(Cl)cc3CCc3cc(Br)cnc32)CCN1C(=O)OC1CCN(C(C)=O)CC1 (centres unmarked) [EX 44] | 10 to 10000 | 
5 | CCOC(=O)C1CN(C2c3ccc(Cl)cc3CCc3cc(Br)cnc32)CCN1C(=O)Cc1cccnc1 (centres unmarked) [EX 33] | 10 to 10000 | 
6 | CNC(=O)C1CN(C2c3ccc(Cl)cc3CCc3cc(Br)cnc32)CCN1C(=O)Cc1ccncc1 (centres unmarked) [EX 55] | 10 to 10000 | 
7 | N[C@@H](CS)CN1CCC(=C2c3ccc(Cl)cc3CCc3cc(Br)cnc32)CC1 [EX 56A] |  | IC50 [1]: > 100000 nM
8 | COCC[C@H]1CN(C2c3ccc(Cl)cc3CCc3cc(Br)cnc32)CCN1C(=O)CC1CCNCC1 (some centres unmarked) [EX 39, Step B] | 10 to 10000 | 
9 | COc1ccc(CSC[C@H](N)C(=O)N2CCC(=C3c4ccc(Cl)cc4CCc4cccnc43)CC2)cc1 [EX 31] | 10 to 10000 | IC50 [2, 5]: 12.5 µM; IC50 [3, 6]: 18 µM
10 | CNC(=O)CC1CN(C2c3ccc(Cl)cc3CCc3cc(Br)cnc32)CCN1C(=O)Cc1ccncc1 (centres unmarked) [EX 51] | 10 to 10000 | 
11 | N[C@@H](CS)CN1CCN(C2c3ccc(Cl)cc3CCc3cc(Br)cnc32)CC1 (some centres unmarked) [EX1] |  | IC50 [1]: > 100000 nM
12 | O=C(NCc1cccnc1)C1CN(C2c3ccc(Cl)cc3CCc3cc(Br)cnc32)CCN1C(=O)CCc1ccccc1 (centres unmarked) [EX 43] | 10 to 10000 | 
13 | O=C(NC1CC1)C1CN(C2c3ccc(Cl)cc3CCc3cc(Br)cnc32)CCN1C(=O)Cc1ccncc1 (centres unmarked) [EX 47] | 10 to 10000 | 
14 | CC(C)NC(=O)C1CN(C2c3ccc(Cl)cc3CCc3cc(Br)cnc32)CCN1C(=O)Cc1cccnc1 (centres unmarked) [EX 32-B] | 10 to 10000 | 
15 | CCCC[C@H]1CN(C2c3ccc(Cl)cc3CCc3cc(Br)cnc32)CCN1C(=O)Cc1cc[n+]([O-])cc1 (some centres unmarked) [EX 36] | 10 to 10000 | IC50 ([2]; read-out: Cell Growth Inhibition MAT Assay Tumor Cells IC50 in µM): 1.6 µM; IC50 [4, 7]: 0.01 to 10 µM; IC50 ([3]; read-out: Cell Growth Inhibition MAT Assay Normal Cells IC50 in µM): > 25 µM
16 | CNC(=O)CC1CN(C2c3ccc(Cl)cc3CCc3cc(Br)cnc32)CCN1C(=O)Cc1cccnc1 (centres unmarked) [EX 46] | 10 to 10000 | 
17 | O=C(Cc1ccncc1)N1CCN(C2c3ccc(Cl)cc3CCc3cc(Br)cnc32)CC1CO (centres unmarked) [EX 50] | 10 to 10000 | 
18 | CC(C)NC(=O)C1CN(C2c3ccc(Cl)cc3CCc3cc(Br)cnc32)CCN1C(=O)Cc1ccncc1 (centres unmarked) [EX 32-C] | 10 to 10000 | 
19 | CCCCNC(=O)C1CN(C2c3ccc(Cl)cc3CCc3cc(Br)cnc32)CCN1C(=O)CC1CCN(C(N)=O)CC1 (centres unmarked) [EX 41] | 10 to 10000 | 
20 | N[C@@H](CSSC[C@H](N)C(=O)N1CCN(C2c3ccc(Cl)cc3CCc3cc(Br)cnc32)CC1)C(=O)N1CCN(C2c3ccc(Cl)cc3CCc3cc(Br)cnc32)CC1 (some centres unmarked) [EX 20, Step B] | 10 to 10000 | 
21 | CC(C)NC(=O)CC1CN(C2c3ccc(Cl)cc3CCc3cc(Br)cnc32)CCN1C(=O)Cc1cccnc1 (centres unmarked) [EX 34] | 10 to 10000 | 
22 | COCC[C@H]1CN(C2c3ccc(Cl)cc3CCc3cc(Br)cnc32)CCN1C(=O)CC1CCN(C(N)=O)CC1 (some centres unmarked) [EX 39, Step C] | 10 to 10000 | IC50 [2, 5]: < 1.6 µM; IC50 [4, 8]: 0.01 to 10 µM; IC50 [3, 6]: > 25 µM
23 | COCC[C@H]1CN(C2c3ccc(Cl)cc3CCc3cc(Br)cnc32)CCN1C(=O)Cc1cc[n+]([O-])cc1 (some centres unmarked) [Ex 38] | 10 to 10000 | IC50 [4, 7]: 0.01 to 10 µM
24 | CCCC[C@H]1CN(C2c3ccc(Cl)cc3CCc3cc(Br)cnc32)CCN1C(=O)CC1CCN(C(N)=O)CC1 (some centres unmarked) [EX 37, Step C] | 10 to 10000 | IC50 [2, 5]: 3.1 µM; IC50 [4, 8]: 0.01 to 10 µM; IC50 [3, 6]: 18 µM
25 | CC(C)N(C)C(=O)C1CN(C2c3ccc(Cl)cc3CCc3cc(Br)cnc32)CCN1C(=O)Cc1ccncc1 (centres unmarked) [EX 56] | 10 to 10000 | 
26 | CN(Cc1ccccc1[N+](=O)[O-])C(=O)C1CN(C2c3ccc(Cl)cc3CCc3cc(Br)cnc32)CCN1C(=O)Cc1cccnc1 (centres unmarked) [EX 48] |  | IC50 [1]: 10000 to 100000 nM
27 | COc1ccc(CSC[C@H](NC(=O)OC(C)(C)C)C(=O)N2CCC(=C3c4ccc(Cl)cc4CCc4cccnc43)CC2)cc1 [EX 30] | 10 to 10000 | IC50 [2, 5]: > 50 µM; IC50 [3, 6]: > 50 µM
